Assay results reported in ChEMBL document CHEMBL1151464 (2008).

Key:
Assay type in all cases: functional
[1] = tested on: Pseudomonas aeruginosa; test: Antibacterial activity against Pseudomonas aeruginosa isolate 338 after 24 hrs by CLSI microdilution method
[2] = tested on: Acinetobacter baumannii; test: Antibacterial activity against Acinetobacter baumannii isolate 887 after 24 hrs by CLSI microdilution method
[3] = tested on: Pseudomonas aeruginosa; test: Antibacterial activity against Pseudomonas aeruginosa isolate 366 after 24 hrs by CLSI microdilution method
[4] = tested on: Pseudomonas aeruginosa; test: Antibacterial activity against Pseudomonas aeruginosa isolate 353 after 24 hrs by CLSI microdilution method
[5] = tested on: Pseudomonas aeruginosa; test: Antibacterial activity against Pseudomonas aeruginosa isolate 368 after 24 hrs by CLSI microdilution method
[6] = tested on: Acinetobacter baumannii; test: Antibacterial activity against Acinetobacter baumannii isolate 929 after 24 hrs by CLSI microdilution method
[7] = tested on: Pseudomonas aeruginosa; test: Antibacterial activity against Pseudomonas aeruginosa isolate 329 after 24 hrs by CLSI microdilution method
[8] = tested on: Pseudomonas aeruginosa; test: Antibacterial activity against Pseudomonas aeruginosa isolate 340 after 24 hrs by CLSI microdilution method
[9] = tested on: Pseudomonas aeruginosa; test: Antibacterial activity against Pseudomonas aeruginosa isolate 345 after 24 hrs by CLSI microdilution method
[10] = tested on: Acinetobacter baumannii; test: Antibacterial activity against Acinetobacter baumannii isolate 932 expressing OXA-24 and OXA-51 beta-lactamase after 24 hrs by CLSI microdilution method
[11] = tested on: Acinetobacter baumannii; test: Antibacterial activity against Acinetobacter baumannii isolate 928 after 24 hrs by CLSI microdilution method
[12] = tested on: Acinetobacter baumannii; test: Antibacterial activity against Acinetobacter baumannii isolate 899 after 24 hrs by CLSI microdilution method
[13] = tested on: Acinetobacter baumannii; test: Antibacterial activity against Acinetobacter baumannii isolate 908 after 24 hrs by CLSI microdilution method
[14] = tested on: Pseudomonas aeruginosa; test: Antibacterial activity against Pseudomonas aeruginosa isolate 367 after 24 hrs by CLSI microdilution method
[15] = tested on: Acinetobacter baumannii; test: Antibacterial activity against Acinetobacter baumannii isolate 918 after 24 hrs by CLSI microdilution method
[16] = tested on: Acinetobacter baumannii; test: Antibacterial activity against Acinetobacter baumannii isolate 922 after 24 hrs by CLSI microdilution method
[17] = tested on: Pseudomonas aeruginosa; test: Antibacterial activity against Pseudomonas aeruginosa isolate 331 after 24 hrs by CLSI microdilution method
[18] = tested on: Acinetobacter baumannii; test: Antibacterial activity against Acinetobacter baumannii isolate 911 after 24 hrs by CLSI microdilution method
[19] = tested on: Pseudomonas aeruginosa; test: Antibacterial activity against Pseudomonas aeruginosa isolate 334 after 24 hrs by CLSI microdilution method
[20] = tested on: Pseudomonas aeruginosa; test: Antibacterial activity against Pseudomonas aeruginosa isolate 335 after 24 hrs by CLSI microdilution method
[21] = tested on: Acinetobacter baumannii; test: Antibacterial activity against Acinetobacter baumannii isolate 931 after 24 hrs by CLSI microdilution method
[22] = tested on: Acinetobacter baumannii; test: Antibacterial activity against Acinetobacter baumannii isolate 886 after 24 hrs by CLSI microdilution method
[23] = tested on: Acinetobacter baumannii; test: Antibacterial activity against Acinetobacter baumannii isolate 923 after 24 hrs by CLSI microdilution method
[24] = tested on: Pseudomonas aeruginosa; test: Antibacterial activity against Pseudomonas aeruginosa isolate 350 after 24 hrs by CLSI microdilution method
[25] = tested on: Acinetobacter baumannii; test: Antibacterial activity against Acinetobacter baumannii isolate 926 after 24 hrs by CLSI microdilution method
[26] = tested on: Pseudomonas aeruginosa; test: Antibacterial activity against Pseudomonas aeruginosa isolate 369 after 24 hrs by CLSI microdilution method
[27] = tested on: Pseudomonas aeruginosa; test: Antibacterial activity against Pseudomonas aeruginosa isolate 356 after 24 hrs by CLSI microdilution method
[28] = tested on: Pseudomonas aeruginosa; test: Antibacterial activity against Pseudomonas aeruginosa isolate 348 after 24 hrs by CLSI microdilution method
[29] = tested on: Pseudomonas aeruginosa; test: Antibacterial activity against Pseudomonas aeruginosa isolate 361 after 24 hrs by CLSI microdilution method
[30] = tested on: Acinetobacter baumannii; test: Antibacterial activity against Acinetobacter baumannii isolate 905 after 24 hrs by CLSI microdilution method
[31] = tested on: Acinetobacter baumannii; test: Antibacterial activity against Acinetobacter baumannii isolate 927 after 24 hrs by CLSI microdilution method
[32] = tested on: Acinetobacter baumannii; test: Antibacterial activity against Acinetobacter baumannii isolate 916 after 24 hrs by CLSI microdilution method
[33] = tested on: Acinetobacter baumannii; test: Antibacterial activity against Acinetobacter baumannii isolate 883 after 24 hrs by CLSI microdilution method
[34] = tested on: Pseudomonas aeruginosa; test: Antibacterial activity against Pseudomonas aeruginosa isolate 357 after 24 hrs by CLSI microdilution method
[35] = tested on: Acinetobacter baumannii; test: Antibacterial activity against Acinetobacter baumannii isolate 909 after 24 hrs by CLSI microdilution method
[36] = tested on: Acinetobacter baumannii; test: Antibacterial activity against Acinetobacter baumannii isolate 895 after 24 hrs by CLSI microdilution method
[37] = tested on: Acinetobacter baumannii; test: Antibacterial activity against Acinetobacter baumannii isolate 882 after 24 hrs by CLSI microdilution method
[38] = tested on: Acinetobacter baumannii; test: Antibacterial activity against Acinetobacter baumannii isolate 920 after 24 hrs by CLSI microdilution method
[39] = tested on: Pseudomonas aeruginosa; test: Antibacterial activity against Pseudomonas aeruginosa isolate 376 after 24 hrs by CLSI microdilution method
[40] = tested on: Acinetobacter baumannii; test: Antibacterial activity against Acinetobacter baumannii isolate 892 after 24 hrs by CLSI microdilution method
[41] = tested on: Pseudomonas aeruginosa; test: Antibacterial activity against Pseudomonas aeruginosa isolate 360 after 24 hrs by CLSI microdilution method
[42] = tested on: Pseudomonas aeruginosa; test: Antibacterial activity against Pseudomonas aeruginosa isolate 328 after 24 hrs by CLSI microdilution method
[43] = tested on: Acinetobacter baumannii; test: Antibacterial activity against Acinetobacter baumannii isolate 912 after 24 hrs by CLSI microdilution method
[44] = tested on: Pseudomonas aeruginosa; test: Antibacterial activity against Pseudomonas aeruginosa isolate 359 after 24 hrs by CLSI microdilution method
[45] = tested on: Pseudomonas aeruginosa; test: Antibacterial activity against Pseudomonas aeruginosa isolate 362 after 24 hrs by CLSI microdilution method
[46] = tested on: Acinetobacter baumannii; test: Antibacterial activity against Acinetobacter baumannii isolate 934 after 24 hrs by CLSI microdilution method
[47] = tested on: Acinetobacter baumannii; test: Antibacterial activity against Acinetobacter baumannii isolate 893 after 24 hrs by CLSI microdilution method
[48] = tested on: Pseudomonas aeruginosa; test: Antibacterial activity against Pseudomonas aeruginosa isolate 363 after 24 hrs by CLSI microdilution method
[49] = tested on: Pseudomonas aeruginosa; test: Antibacterial activity against Pseudomonas aeruginosa isolate 358 after 24 hrs by CLSI microdilution method
[50] = tested on: Pseudomonas aeruginosa; test: Antibacterial activity against Pseudomonas aeruginosa isolate 373 after 24 hrs by CLSI microdilution method
[51] = tested on: Pseudomonas aeruginosa; test: Antibacterial activity against Pseudomonas aeruginosa isolate 364 after 24 hrs by CLSI microdilution method
[52] = tested on: Acinetobacter baumannii; test: Antibacterial activity against Acinetobacter baumannii isolate 917 after 24 hrs by CLSI microdilution method
[53] = tested on: Acinetobacter baumannii; test: Antibacterial activity against Acinetobacter baumannii isolate 890 after 24 hrs by CLSI microdilution method
[54] = tested on: Acinetobacter baumannii; test: Antibacterial activity against Acinetobacter baumannii isolate 930 after 24 hrs by CLSI microdilution method
[55] = tested on: Pseudomonas aeruginosa; test: Antibacterial activity against Pseudomonas aeruginosa isolate 326 after 24 hrs by CLSI microdilution method
[56] = tested on: Acinetobacter baumannii; test: Antibacterial activity against Acinetobacter baumannii isolate 914 after 24 hrs by CLSI microdilution method
[57] = tested on: Acinetobacter baumannii; test: Antibacterial activity against Acinetobacter baumannii isolate 906 after 24 hrs by CLSI microdilution method
[58] = tested on: Pseudomonas aeruginosa; test: Antibacterial activity against Pseudomonas aeruginosa isolate 355 after 24 hrs by CLSI microdilution method
[59] = tested on: Acinetobacter baumannii; test: Antibacterial activity against Acinetobacter baumannii isolate 900 after 24 hrs by CLSI microdilution method

Sequence: COLISTIN
- MIC [1]: 1 µg/mL
- MIC [2]: 16 µg/mL
- MIC [3]: 0.5 µg/mL
- MIC [4]: 0.25 µg/mL
- MIC [5]: 2 µg/mL
- MIC [6]: 32 µg/mL
- MIC [7]: 1 µg/mL
- MIC [8]: 1 µg/mL
- MIC [9]: 1 µg/mL
- MIC [10]: 0.5 µg/mL
- MIC [11]: 1 µg/mL
- MIC [12]: 32 µg/mL
- MIC [13]: 0.5 µg/mL
- MIC [14]: 0.5 µg/mL
- MIC [15]: 4 µg/mL
- MIC [16]: 4 µg/mL
- MIC [17]: 0.5 µg/mL
- MIC [18]: 8 µg/mL
- MIC [19]: 1 µg/mL
- MIC [20]: 1 µg/mL
- MIC [21]: 4 µg/mL
- MIC [22]: 1 µg/mL
- MIC [23]: 4 µg/mL
- MIC [24]: 1 µg/mL
- MIC [25]: 2 µg/mL
- MIC [26]: 2 µg/mL
- MIC [27]: 1 µg/mL
- MIC [28]: 1 µg/mL
- MIC [29]: 1 µg/mL
- MIC [30]: 4 µg/mL
- MIC [31]: 2 µg/mL
- MIC [32]: 0.12 µg/mL
- MIC [33]: 32 µg/mL
- MIC [34]: 2 µg/mL
- MIC [35]: 1 µg/mL
- MIC [36]: 2 µg/mL
- MIC [37]: 1 µg/mL
- MIC [38]: 8 µg/mL
- MIC [39]: 0.25 µg/mL
- MIC [40]: 16 µg/mL
- MIC [41]: 1 µg/mL
- MIC [42]: 2 µg/mL
- MIC [43]: 0.5 µg/mL
- MIC [44]: 0.5 µg/mL
- MIC [45]: 1 µg/mL
- MIC [46]: 8 µg/mL
- MIC [47]: 0.5 µg/mL
- MIC [48]: 0.25 µg/mL
- MIC [49]: 1 µg/mL
- MIC [50]: 1 µg/mL
- MIC [51]: 1 µg/mL
- MIC [52]: 4 µg/mL
- MIC [53]: 2 µg/mL
- MIC [54]: 0.25 µg/mL
- MIC [55]: 1 µg/mL
- MIC [56]: 2 µg/mL
- MIC [57]: 4 µg/mL
- MIC [58]: 1 µg/mL
- MIC [59]: 2 µg/mL
